In the first assay the target is T1, Full-length, GST-tagged, human CaMKIIδ (Homo sapiens, UniProt Q13557).
T1 construct: Full-Length, Glutathione-S-Transferase(GST)-Tagged, Human CaMKIIδ was purchased from Carna Biosciences; purchased Carna Biosciences 02-111
T1 sequence (Q13557 1-478 isoform Q13557-12): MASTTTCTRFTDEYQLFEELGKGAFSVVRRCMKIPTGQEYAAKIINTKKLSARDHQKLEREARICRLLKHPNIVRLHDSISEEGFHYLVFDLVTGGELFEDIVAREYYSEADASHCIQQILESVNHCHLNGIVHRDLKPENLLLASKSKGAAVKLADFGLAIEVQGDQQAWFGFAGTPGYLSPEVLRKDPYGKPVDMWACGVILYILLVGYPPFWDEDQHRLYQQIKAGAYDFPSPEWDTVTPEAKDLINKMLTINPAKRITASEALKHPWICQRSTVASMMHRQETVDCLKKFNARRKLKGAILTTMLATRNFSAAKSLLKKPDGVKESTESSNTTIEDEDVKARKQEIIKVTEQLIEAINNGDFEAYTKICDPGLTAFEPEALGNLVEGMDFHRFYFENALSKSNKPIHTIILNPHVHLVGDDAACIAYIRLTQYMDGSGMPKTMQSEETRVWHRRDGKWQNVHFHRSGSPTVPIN
In words: CaMKIIδ binding assay (TR-FRET with BODIPY-labeled probe ligand). The following applies: CaMKIIδ binding assay, results of Table 2. Summed up: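 Compounds were tested as 4-fold, eight-point series for 1 hr at room temperature, and IC50 was obtained by logistic fitting against a 3 μM parent-compound control. Signal came from displacement of a 300 nM BODIPY ligand from 0.5 nM GST-CaMKIIδ, detected via Tb-anti-GST in calmodulin/Ca2+ (pH 7.6).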
A general note: TR-FRET usually uses a lanthanide donor and a delayed reading to cut background.
In the case of `COc1cc2c(cc1Nc1ncc(-c3ccc(Cl)c(O[C@@H](C)Cn4cnnn4)c3)cn1)CN(C(=O)C(F)(F)F)CC2` [Example 460, (S)-1-(7-((5-(3-((1-(1H-tetrazol-1-yl)propan-2-yl)oxy)-4-chlorophenyl)pyrimidin-2-yl)amino)-6-methoxy-3,4-dihydroisoquinolin-2(1H)-yl)-2,2,2-trifluoroethan-1-one], the half-maximal inhibitory concentration (IC50) – broadly, the concentration needed to halve the response being measured – was at least 100 nM.
Take `C[C@@H](Cn1cnnn1)Oc1cc(-c2cnc(Nc3cn(C4CCN(Cc5ccccn5)CC4)nc3C(F)(F)F)nc2)ccc1Cl` [Example 564, (S)-5-(3-((1-(1H-tetrazol-1-yl)propan-2-yl)oxy)-4-chlorophenyl)-N-(1-(1-(pyridin-2-ylmethyl)piperidin-4-yl)-3-(trifluoromethyl)-1H-pyrazol-4-yl)pyrimidin-2-amine]: the IC50 is under 10 nM.
The same measure, in the same setting: with `C[C@@H](Cn1cnnn1)Oc1cc(-c2cnc(Nc3ccc4c(c3)N(C(=O)C3CCN(C)CC3)CC4)nc2)ccc1Cl` [Example 435, (S)-(6-((5-(3-((1-(1H-tetrazol-1-yl)propan-2-yl)oxy)-4-chlorophenyl)pyrimidin-2-yl)amino)indolin-1-yl) (1-methylpiperidin-4-yl)methanone] the figure was under 10 nM.
Same read-out and setting: with `COc1cc2c(cc1Nc1ncc(-c3ccc(Cl)c(O[C@@H](C)Cn4cnnn4)c3)cn1)CCN(CC(F)F)C2` [Example 476, (S)-N-(5-(3-((1-(1H-tetrazol-1-yl)propan-2-yl)oxy)-4-chlorophenyl)pyrimidin-2-yl)-2-(2,2-difluoroethyl)-7-methoxy-1,2,3,4-tetrahydroisoquinolin-6-amine] the figure was 10 to 100 nM.
The same measure, in the same setting: with `C[C@@H](Cn1cnnn1)Oc1cc(-c2cnc(Nc3cc4c(cc3Cl)CCN(C3COC3)CC4)nc2)ccc1Cl` [Example 513, (S)-N-(5-(3-((1-(1H-tetrazol-1-yl)propan-2-yl)oxy)-4-chlorophenyl)pyrimidin-2-yl)-8-chloro-3-(oxetan-3-yl)-2,3,4,5-tetrahydro-1H-benzo[d]azepin-7-amine] the figure was under 10 nM.

The assay is the same for the next values; noted with them: CaMKIIδ binding assay; activity class per Table 2.
`C[C@@H](Cn1cnnn1)Oc1cc(-c2cnc(Nc3cn(C4CC5(C4)CN(C4COC(C)(C)OC4)C5)nc3C(F)(F)F)nc2)ccc1Cl` [Example 922, (S)-5-(3-((1-(1H-tetrazol-1-yl)propan-2-yl)oxy)-4-chlorophenyl)-N-(1-(2-(2,2-dimethyl-1,3-dioxan-5-yl)-2-azaspiro[3.3]heptan-6-yl)-3-(trifluoromethyl)-1H-pyrazol-4-yl)pyrimidin-2-amine] came in with an IC50 of under 10 nM.
Molecule `CCOC(=O)C(C)(C)n1cc(Nc2ncc(-c3ccc(Cl)c(O[C@@H](C)Cn4cnnn4)c3)cn2)c(OCC(F)(F)F)n1` [Example 885, ethyl (S)-2-(4-((5-(3-((1-(1H-tetrazol-1-yl)propan-2-yl)oxy)-4-chlorophenyl)pyrimidin-2-yl)amino)-3-(2,2,2-trifluoroethoxy)-1H-pyrazol-1-yl)-2-methylpropanoate] showed an IC50 of under 10 nM.
On the same count and under the same terms, under `C[C@@H](Cn1cnnn1)Oc1cc(-c2cnc(Nc3cn(C4CC5(C4)CN(C4CCOC4)C5)nc3C(F)(F)F)nc2)ccc1Cl` (stereo partly drawn) [Example 930, 5-(3-(((S)-1-(1H-tetrazol-1-yl)propan-2-yl)oxy)-4-chlorophenyl)-N-(1-(2-(tetrahydrofuran-3-yl)-2-azaspiro[3.3]heptan-6-yl)-3-(trifluoromethyl)-1H-pyrazol-4-yl)pyrimidin-2-amine] stands under 10 nM; under `CO[C@H]1CC[C@@H](N2CC3(CC(n4cc(Nc5ncc(-c6ccc(Cl)c(O[C@@H](C)Cn7cnnn7)c6)cn5)c(C(C)C)n4)C3)C2)CC1` [Example 1011, 5-(3-(((S)-1-(1H-tetrazol-1-yl)propan-2-yl)oxy)-4-chlorophenyl)-N-(3-isopropyl-1-(2-(cis-4-methoxycyclohexyl)-2-azaspiro[3.3]heptan-6-yl)-1H-pyrazol-4-yl)pyrimidin-2-amine], under 10 nM; under `C[C@@H](Cn1cnnn1)Oc1cc(-c2cnc(Nc3cn(-c4cn[nH]c4)nc3C(F)(F)F)nc2)ccc1Cl` [Example 890, (S)-N-(5-(3-((1-(1H-tetrazol-1-yl)propan-2-yl)oxy)-4-chlorophenyl)pyrimidin-2-yl)-3-(trifluoromethyl)-1′H-[1,4′-bipyrazol]-4-amine], 10 to 100 nM.
Regarding `COCCN1CC2(CC(n3cc(Nc4ncc(-c5ccc(Cl)c(O[C@@H](C)Cn6cnnn6)c5)cn4)c(C(C)C)n3)C2)C1` [Example 1012, (S)-5-(3-((1-(1H-tetrazol-1-yl)propan-2-yl)oxy)-4-chlorophenyl)-N-(3-isopropyl-1-(2-(2-methoxyethyl)-2-azaspiro[3.3]heptan-6-yl)-1H-pyrazol-4-yl)pyrimidin-2-amine], the IC50 was under 10 nM.
As for `C[C@@H](Cn1cnnn1)Oc1cc(-c2cnc(Nc3cn(Cc4ccc(=O)[nH]c4)nc3OCC(F)(F)F)nc2)ccc1Cl` [Example 927, (S)-5-((4-((5-(3-((1-(1H-tetrazol-1-yl)propan-2-yl)oxy)-4-chlorophenyl)pyrimidin-2-yl)amino)-3-(2,2,2-trifluoroethoxy)-1H-pyrazol-1-yl)methyl)pyridin-2(1H)-one], the half-inhibitory concentration (IC50) was under 10 nM.
The same measure, in the same setting: under `COCCN1CC2(CC(n3cc(Nc4ncc(-c5ccc(Cl)c(O[C@@H](C)Cn6cnnn6)c5)cn4)c(OCC(F)(F)F)n3)C2)C1` [Example 979, (S)-5-(3-((1-(1H-tetrazol-1-yl)propan-2-yl)oxy)-4-chlorophenyl)-N-(1-(2-(2-methoxyethyl)-2-azaspiro[3.3]heptan-6-yl)-3-(2,2,2-trifluoroethoxy)-1H-pyrazol-4-yl)pyrimidin-2-amine] stands under 10 nM.

Staying with this assay, now noted: Table 2; CaMKIIδ binding assay, activity given as class A/B/C.
Consider `C[C@@H](Cn1cnnn1)Oc1cc(-c2cnc(Nc3cn(CCCCO)nc3OCC(F)(F)F)nc2)ccc1Cl` [Example 783, (S)-4-(4-((5-(3-((1-(1H-tetrazol-1-yl)propan-2-yl)oxy)-4-chlorophenyl)pyrimidin-2-yl)amino)-3-(2,2,2-trifluoroethoxy)-1H-pyrazol-1-yl)butan-1-ol], for which the IC50 was under 10 nM.
The molecule `Cc1cc(Nc2ncc(-c3ccc(Cl)c(O[C@@H](C)Cn4cnnn4)c3)cn2)n(C(C)C)n1` [Example 742, (S)-5-(3-((1-(1H-tetrazol-1-yl)propan-2-yl)oxy)-4-chlorophenyl)-N-(1-isopropyl-3-methyl-1H-pyrazol-5-yl)pyrimidin-2-amine] had an IC50 of 10 to 100 nM.
Still for that read-out and setting: under `C[C@@H](Cn1cnnn1)Oc1cc(-c2cnc(Nc3ccn(C)n3)nc2)ccc1Cl` [Example 755, (S)-5-(3-((1-(1H-tetrazol-1-yl)propan-2-yl)oxy)-4-chlorophenyl)-N-(1-methyl-1H-pyrazol-3-yl)pyrimidin-2-amine] stands 10 to 100 nM.
In turn, `C[C@@H](Cn1cnnn1)Oc1cc(-c2cnc(Nc3cn([C@H]4CC[C@@H](N5CCOCC5)CC4)nc3OC[C@@H]3CC3(F)F)nc2)ccc1Cl` [Example 870, 5-(3-(((S)-1-(1H-tetrazol-1-yl)propan-2-yl)oxy)-4-chlorophenyl)-N-(3-(((S)-2,2-difluorocyclopropyl)methoxy)-1-(cis-4-morpholinocyclohexyl)-1H-pyrazol-4-yl)pyrimidin-2-amine] had an IC50 of under 10 nM.

The same assay, now with this note: Table 2; activity class for CaMKIIδ.
As for `COc1ccc(N2CCN(C(=O)CN(C)C)CC2)cc1Nc1ncc(-c2ccc(Cl)c(O[C@@H](C)Cn3cnnn3)c2)cn1` [Example 583, (S)-1-(4-(3-((5-(3-((1-(1H-tetrazol-1-yl)propan-2-yl)oxy)-4-chlorophenyl)pyrimidin-2-yl)amino)-4-methoxyphenyl)piperazin-1-yl)-2-(dimethylamino)ethan-1-one], the half-inhibitory concentration (IC50) is under 10 nM.
`CNC(=O)C1CN(c2ccc(OC)c(Nc3ncc(-c4ccc(Cl)c(O[C@@H](C)Cn5cnnn5)c4)cn3)c2)C1` [Example 679, (S)-1-(3-((5-(3-((1-(1H-tetrazol-1-yl)propan-2-yl)oxy)-4-chlorophenyl)pyrimidin-2-yl)amino)-4-methoxyphenyl)-N-methylazetidine-3-carboxamide] registered an IC50 of under 10 nM.
Still for that read-out and setting: with `C[C@@H](Cn1cnnn1)Oc1cc(-c2cnc(Nc3cc(C(F)(F)F)nn3C)nc2)ccc1Cl` [Example 720, (S)-5-(3-((1-(1H-tetrazol-1-yl)propan-2-yl)oxy)-4-chlorophenyl)-N-(1-methyl-3-(trifluoromethyl)-1H-pyrazol-5-yl)pyrimidin-2-amine] the figure was 10 to 100 nM; with `CCn1cc(Nc2ncc(-c3ccc(Cl)c(O[C@@H](C)Cn4cnnn4)c3)cn2)c(N2CCC2)n1` [Example 668, (S)-5-(3-((1-(1H-tetrazol-1-yl)propan-2-yl)oxy)-4-chlorophenyl)-N-(3-(azetidin-1-yl)-1-ethyl-1H-pyrazol-4-yl)pyrimidin-2-amine], at least 100 nM; with `Cc1ncc(N2CC(CN3CCOCC3)C2)cc1Nc1ncc(-c2ccc(Cl)c(O[C@@H](C)Cn3cnnn3)c2)cn1` [Example 610, (S)-5-(3-((1-(1H-tetrazol-1-yl)propan-2-yl)oxy)-4-chlorophenyl)-N-(2-methyl-5-(3-(morpholinomethyl)azetidin-1-yl)pyridin-3-yl)pyrimidin-2-amine], under 10 nM.
Same read-out and setting: with `CCN(CC)C(=O)Cn1cc(Nc2ncc(-c3ccc(Cl)c(O[C@@H](C)Cn4cnnn4)c3)cn2)c(C(F)(F)F)n1` [Example 606, (S)-2-(4-((5-(3-((1-(1H-tetrazol-1-yl)propan-2-yl)oxy)-4-chlorophenyl)pyrimidin-2-yl)amino)-3-(trifluoromethyl)-1H-pyrazol-1-yl)-N,N-diethylacetamide] the figure was 10 to 100 nM.
Turning to `C[C@@H](Cn1cnnn1)Oc1cc(-c2cnc(Nc3cn(C4CCN(C(=O)OC(C)(C)C)CC4)nc3OCC(F)(F)F)nc2)ccc1Cl` [Example 675, tert-butyl (S)-4-(4-((5-(3-((1-(1H-tetrazol-1-yl)propan-2-yl)oxy)-4-chlorophenyl)pyrimidin-2-yl)amino)-3-(2,2,2-trifluoroethoxy)-1H-pyrazol-1-yl)piperidine-1-carboxylate], the IC50 is 10 to 100 nM.

(Values after patent US10543212B2, “Substituted amines for treating cardiac diseases” (Cardurion Pharmaceuticals, LLC, priority 2017, dated 2020).)
